The source made the active and inactive calls. No cut-off for these calls is given here.
Assays:
Aorta = assay: Vasodilative activity against […] Sprague-Dawley rat thoracic aorta assessed as reduction in phenylepinephrine-induced contraction; assay type: functional, tissue-based
Rattus norvegicus [1] = assay: Antihypertensive activity against phenol-induced hypertension in Sprague-Dawley rat assessed as decrease in mean arterial pressure at 300 µg/kg, iv in presence of capsaicin administered 4 days before compound administration; details: Artery
Rattus norvegicus [2] = assay: Antihypertensive activity against phenol-induced hypertension in iv dosed Sprague-Dawley rat assessed as decrease in mean arterial blood pressure; assay type: functional, organism-based; details: Artery

EC50 (Aorta) [µM] | SMILES | Emax (Aorta) [%] | Activity (Rattus norvegicus [1]) | Activity (Rattus norvegicus [2])
19.7 | COc1ccc2[nH]c3c(c2c1)CCn1c-3nc2cccc(Cl)c2c1=O | 37.1 | – | –
16.8 | O=c1c2c(Cl)cccc2nc2n1CCc1c-2[nH]c2ccccc12 | 39.6 | – | –
20.1 | c1ccc2c(c1)CN1CCc3c([nH]c4ccccc34)C1N2 (stereo not given) [RUTAECARPANE] | 63.6 | – | –
1.33 | O=c1c2ccccc2nc2n1CCc1c-2[nH]c2ccccc12 [RUTAECARPINE] | 79.3 | – | –
2.11 | COc1ccc2[nH]c3c(c2c1)CCn1c-3nc2ccc(Cl)cc2c1=O | 55.2 | – | –
9.4 | COc1ccc2[nH]c3c(c2c1)CCn1c-3nc2ccc(Br)cc2c1=O | 40.3 | – | –
5460 | COC(=O)C(Cc1c[nH]c2ccccc12)n1cnc2ccccc2c1=O (stereo not given) | 15.5 | – | –
934 | COc1ccc2[nH]c3c(c2c1)CCN1C(=O)c2ccccc2OC31C (stereo not given) | 31.6 | – | –
32.3 | O=c1c2cc(Cl)ccc2nc2n1CCc1c-2[nH]c2ccccc12 | 40.6 | – | –
2.99 | Cc1cccc2c3c([nH]c12)-c1nc2ccccc2c(=O)n1CC3 | 47 | – | –
1.24 | Cc1ccc2[nH]c3c(c2c1)CCn1c-3nc2ccccc2c1=O | 85.1 | inactive | Dose-dependent effect
1590 | CC12Oc3ccccc3C(=O)N1CCc1c2[nH]c2ccccc12 (stereo not given) | 29.9 | – | –
63600 | COc1ccc2[nH]c3c(c2c1)CCN1C(=O)c2ccccc2OC31 (stereo not given) | 13 | – | –
3.25 | CC(=O)c1ccc2[nH]c3c(c2c1)CCn1c-3nc2ccccc2c1=O | 68.2 | – | –
2.31 | O=c1c2ccccc2nc2n1CCc1c-2[nH]c2c(Cl)cc(Cl)c(Cl)c12 | 51 | – | –
2.44 | O=c1c2ccccc2nc2n1CCc1c-2[nH]c2c(Cl)cccc12 | 50.1 | – | –
5700 | COc1ccc2[nH]c3c(c2c1)CCn1c-3c(O)c2ccccc2c1=O | 13.2 | – | –
15400 | O=c1c2ccccc2c(O)c2n1CCc1c-2[nH]c2ccccc12 | 14.1 | – | –
220 | O=C1c2ccccc2OC2c3[nH]c4ccccc4c3CCN12 (stereo not given) | 39.8 | – | –
55.1 | COc1ccc2[nH]c3c(c2c1)CCn1c-3nc2ccccc2c1=O | 42.6 | – | –
7.86 | O=C1c2ccccc2NC2(C(F)(F)F)c3[nH]c4ccccc4c3CCN12 (stereo not given) | 42.5 | – | –
21.1 | O=c1c2ccc(Cl)cc2nc2n1CCc1c-2[nH]c2ccccc12 | 36.6 | – | –
25.1 | c1ccc2c(c1)CN1CCc3c([nH]c4ccccc34)C1=N2 [RUTAECARPENE] | 68.9 | – | –
22.5 | COc1ccc2[nH]c3c(c2c1)CCn1c-3nc2cc(Cl)ccc2c1=O | 33.9 | – | –

Source: ChEMBL document CHEMBL1152803, “Synthesis and vasodilator effects of rutaecarpine analogues which might be involved transient receptor potential vanilloid subfamily, member 1 (TRPV1)” (Bioorg Med Chem, 2009)
